Measured values published in patent US20100311714A1, “1H-IMIDAZO[4,5-c]QUINOLINONE COMPOUNDS” (priority 2009, published 2010).
pIC50: −log10 of the molar value.

How the values were obtained:
PI3K beta = biological target: T1, PI3K beta (Homo sapiens, UniProt P42338); assay: PI3K beta kinase assay (Kinase-Glo luminescence); type: biochemical; conditions: read-out: EPK_PI3Kbeta/IC50
T1 construct: for the full-length p110-b subunit are generated and fused by overlapping PCR; His tag (C); made in house; host or cells: baculovirus BV949; Tn5 (Trichoplusia ni) or TiniPro insect cells
T1 sequence (P42338 with tags, fused parts or gaps limits assumed): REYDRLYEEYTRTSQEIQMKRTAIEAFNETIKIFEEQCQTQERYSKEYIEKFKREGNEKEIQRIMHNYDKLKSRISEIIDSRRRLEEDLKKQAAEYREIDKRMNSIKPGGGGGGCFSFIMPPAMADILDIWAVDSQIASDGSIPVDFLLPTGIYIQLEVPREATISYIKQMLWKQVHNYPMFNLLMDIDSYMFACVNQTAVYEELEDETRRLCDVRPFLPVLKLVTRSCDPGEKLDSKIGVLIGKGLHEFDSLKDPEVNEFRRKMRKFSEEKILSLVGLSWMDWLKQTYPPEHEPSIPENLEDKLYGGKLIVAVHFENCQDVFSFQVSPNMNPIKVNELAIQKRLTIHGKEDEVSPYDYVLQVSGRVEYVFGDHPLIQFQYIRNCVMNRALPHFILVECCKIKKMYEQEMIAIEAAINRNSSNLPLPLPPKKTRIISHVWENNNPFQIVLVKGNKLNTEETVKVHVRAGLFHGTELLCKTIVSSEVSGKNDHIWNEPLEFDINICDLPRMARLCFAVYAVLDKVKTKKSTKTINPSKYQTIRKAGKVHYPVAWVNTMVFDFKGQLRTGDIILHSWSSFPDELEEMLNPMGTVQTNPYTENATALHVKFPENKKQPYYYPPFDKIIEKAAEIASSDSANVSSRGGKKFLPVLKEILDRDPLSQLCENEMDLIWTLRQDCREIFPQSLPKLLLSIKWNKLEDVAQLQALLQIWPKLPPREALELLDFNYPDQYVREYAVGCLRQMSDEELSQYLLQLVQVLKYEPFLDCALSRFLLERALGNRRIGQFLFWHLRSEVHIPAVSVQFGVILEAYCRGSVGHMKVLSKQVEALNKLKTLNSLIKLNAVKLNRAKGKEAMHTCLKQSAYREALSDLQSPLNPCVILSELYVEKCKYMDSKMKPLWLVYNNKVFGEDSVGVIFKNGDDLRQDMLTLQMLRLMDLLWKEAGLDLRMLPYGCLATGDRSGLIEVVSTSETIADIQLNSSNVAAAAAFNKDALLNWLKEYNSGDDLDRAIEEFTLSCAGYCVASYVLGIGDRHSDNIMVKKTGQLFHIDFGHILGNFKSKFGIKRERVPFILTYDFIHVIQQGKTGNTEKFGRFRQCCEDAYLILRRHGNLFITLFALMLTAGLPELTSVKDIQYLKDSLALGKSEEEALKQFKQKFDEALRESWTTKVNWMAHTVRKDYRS
Experimental: (§1) In a more preferred assay, the kinase reaction is performed in a final volume of 10 μL per well of a low volume non binding CORNING, 384 well black plate (Cat. No. #3676). The final concentrations of ATP and phosphatidyl inositol (PI) in the assay are 1 μM and 10 μg/mL respectively. The reaction is started by the addition of ATP.
(§2) The components of the assay are added per well as follows:
(§3) 50 nL test compounds in 90% DMSO per well, in columns 1-20, 8 concentrations (⅓ and 1/3.33 serial dilution step) in single. • Low control: […] of 90% DMSO in half the wells of columns 23-24 (0.45% in final). • High control: 50 nL of reference compound (e.g. compound of Example 7 in WO 2006/122806) in the other half of columns 23-24 (2.5 μM in final). • Standard: 50 nL of reference compound as just mentioned diluted as the test compounds in columns 21-22 • 20 mL ‘buffer’ are prepared per assay: • 200 μL of 1M TRIS HCl pH7.5 (10 mM in final) • 60 μL of 1M MgCl2 (3 mM in final) • 500 μL of 2M NaCl (50 mM in final) • 100 μL of 10% CHAPS (0.05% in final) • 200 μL of 100 mM DTT (1 mM in final) • 18.94 mL of nanopure water • 10 mL ‘PI’ are prepared per assay: • 200 μL of 1 mg/ml L-alpha-Phosphatidylinositol (Liver Bovine, Avanti Polar Lipids Cat. No. 840042C MW=909.12) prepared in 3% OctylGlucoside (10 μg/ml in final) • 9.8 mL of ‘buffer’ • 10 mL ‘ATP’ are prepared per assay: • 6.7 μL of 3 mM stock of ATP giving a final concentration of 1 μM per well • 10 mL of ‘buffer’ • 2.5 mL of each PI3K construct are prepared per assay in ‘PI’ with the following final concentration: • 10 nM PI3K alfa EMV B1075 • 25 nM beta EMV BV949 • 10 nM delta EMV BV1060 • 150 nM gamma EMV BV950 • 5 μL of ‘PI/PI3K’ are added per well. • 5 μl ‘ATP’ are added per well to start the reaction. • The plates are then incubated at room temperature for 60 minutes (alfa, beta, delta) or 120 minutes (gamma). • The reaction is terminated by the addition of 10 μL Kinase-Glo (Promega Cat. No. #6714). • The assay plates are read after 10 minutes in Synergy 2 reader (BioTek, Vermont USA) with an integration time of 100 milliseconds and sensitivity set to 191. • Output: The High control is around 60′000 counts and the Low control is 30′000 or lower • This luminescence assay gives a useful Z′ ratio between 0.4 and 0.7
PI3Kβ BV-949 p85(iSH2)-Gly linker-r 110b(full-length)-C-term His Tag
PI3K beta is purified in two chromatographic steps: immobilized metal affinity chromatography (IMAC) on a Ni Sepharose resin (GE Healthcare) and gel filtration (GFC) utilizing a Superdex 200 26/60 column (GE Healthcare). All buffers are chilled to 4° C. and lysis is performed chilled on ice. Column fractionation is performed rapidly at room temperature.
(§4) IC50 is determined by a four parameter curve fitting routine that comes along with “excel fit”. A 4 Parameter logistic equation is used to calculate IC50 values (IDBS XLfit) of the percentage inhibition of each compound at 8 concentrations (usually 10, 3.0, 1.0, 0.3, 0.1, 0.030, 0.010 and 0.003 μM). Alternatively, IC50 values are calculated using idbsXLfit model 204, which is a 4 parameter logistic model.

PI3K delta = biological target: T2, PI3K delta (Homo sapiens, UniProt O00329); assay: PI3K delta kinase assay (Kinase-Glo luminescence); type: biochemical; conditions: read-out: EPK_PI3Kdelta/IC50
T2 construct: for the full-length p110-d subunit are generated and fused by overlapping PCR; His tag (C); made in house; host or cells: baculovirus BV1060; Tn5 (Trichoplusia ni) or TiniPro insect cells
T2 sequence (O00329 with tags, fused parts or gaps limits assumed): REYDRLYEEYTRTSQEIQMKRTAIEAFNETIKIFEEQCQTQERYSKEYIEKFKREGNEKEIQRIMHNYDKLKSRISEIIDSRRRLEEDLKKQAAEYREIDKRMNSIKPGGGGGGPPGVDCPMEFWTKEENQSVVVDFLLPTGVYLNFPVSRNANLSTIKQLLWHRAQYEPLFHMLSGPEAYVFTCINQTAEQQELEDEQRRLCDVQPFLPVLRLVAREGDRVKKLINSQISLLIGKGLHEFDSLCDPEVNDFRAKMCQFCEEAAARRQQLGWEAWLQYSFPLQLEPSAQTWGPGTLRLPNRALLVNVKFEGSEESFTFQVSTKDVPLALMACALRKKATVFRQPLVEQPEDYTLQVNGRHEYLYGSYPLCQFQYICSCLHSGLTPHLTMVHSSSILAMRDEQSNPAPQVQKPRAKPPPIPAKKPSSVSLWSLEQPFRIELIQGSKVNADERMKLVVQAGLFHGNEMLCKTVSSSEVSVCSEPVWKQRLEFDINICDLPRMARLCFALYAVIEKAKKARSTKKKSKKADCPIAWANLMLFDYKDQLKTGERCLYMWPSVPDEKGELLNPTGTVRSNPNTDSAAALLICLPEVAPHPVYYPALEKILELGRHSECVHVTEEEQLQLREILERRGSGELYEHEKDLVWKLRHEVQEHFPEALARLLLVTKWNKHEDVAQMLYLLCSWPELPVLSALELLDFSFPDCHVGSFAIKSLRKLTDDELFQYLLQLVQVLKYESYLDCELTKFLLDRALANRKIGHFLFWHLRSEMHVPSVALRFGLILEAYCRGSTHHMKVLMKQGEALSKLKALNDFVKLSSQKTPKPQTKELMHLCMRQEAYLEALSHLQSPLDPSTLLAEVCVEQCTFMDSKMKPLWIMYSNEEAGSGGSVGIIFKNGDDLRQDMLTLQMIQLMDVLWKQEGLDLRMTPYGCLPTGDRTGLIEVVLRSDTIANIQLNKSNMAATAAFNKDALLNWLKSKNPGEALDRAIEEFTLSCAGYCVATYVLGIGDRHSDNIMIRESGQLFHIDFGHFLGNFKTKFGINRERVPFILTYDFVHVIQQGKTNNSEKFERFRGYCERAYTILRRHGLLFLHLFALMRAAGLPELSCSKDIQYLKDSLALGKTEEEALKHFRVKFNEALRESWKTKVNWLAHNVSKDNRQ
Experimental: as §1, §2, §3
PI3Kδ BV-1060 p85(iSH2)-Gly Linker-p110d(Full-Length)-C-Term His Tag
PI3K delta is purified in three chromatographic steps: immobilized metal affinity chromatography on a Ni Sepharose resin (GE Healthcare), gel filtration utilizing a Superdex 200 26/60 column (GE Healthcare), and finally a anion exchange step on a Q-HP column (GE Healthcare). All buffers are chilled to 4° C. and lysis is performed chilled on ice. Column fractionation is performed rapidly at room temperature. Typically frozen insect cells are lysed in a hypertonic lysis buffer and applied to a prepared IMAC column. The resin is washed with 3-5 column volumes of lysis buffer, followed by 3-5 column volumes wash buffer containing 45 mM imidazole, and the target protein is then eluted with a buffer containing 250 mM imidazole. Fractions are analyzed by Coomassie stained SDS-PAGE gels, and fractions containing the target protein are pooled and applied to a prepared GFC column. Fractions from the GFC column are analyzed by Coomassie stained SDS-PAGE gels, and fractions containing the target protein are pooled. The pool from the GFC column is diluted into a low salt buffer and applied to a prepared Q-HP column. The column is washed with low salt buffer until a stable A280 baseline absorbance is achieved, and eluted using a 20 column volume gradient from 0 mM NaCl to 500 mM NaCl. Again, fractions from the Q-HP column are analyzed by Coomassie stained SDS-PAGE gels, and fractions containing the target protein are pooled. The final pool is dialyzed into a storage buffer containing 50% glycerol and stored at −20° C. The final pool is assayed for activity in the phosphoinostitol kinase assay. […]

mTOR = biological target: T3, mTOR (Homo sapiens, UniProt P42345); assay: Biochemical assay for m-TOR by TR-FRET; conditions: read-out: EPK_mTOR/IC50
T3 construct: purchased Invitrogen Corporation (Carlsbad/Calif., USA) PV4753
T3 sequence (P42345 1360-2549 limits assumed): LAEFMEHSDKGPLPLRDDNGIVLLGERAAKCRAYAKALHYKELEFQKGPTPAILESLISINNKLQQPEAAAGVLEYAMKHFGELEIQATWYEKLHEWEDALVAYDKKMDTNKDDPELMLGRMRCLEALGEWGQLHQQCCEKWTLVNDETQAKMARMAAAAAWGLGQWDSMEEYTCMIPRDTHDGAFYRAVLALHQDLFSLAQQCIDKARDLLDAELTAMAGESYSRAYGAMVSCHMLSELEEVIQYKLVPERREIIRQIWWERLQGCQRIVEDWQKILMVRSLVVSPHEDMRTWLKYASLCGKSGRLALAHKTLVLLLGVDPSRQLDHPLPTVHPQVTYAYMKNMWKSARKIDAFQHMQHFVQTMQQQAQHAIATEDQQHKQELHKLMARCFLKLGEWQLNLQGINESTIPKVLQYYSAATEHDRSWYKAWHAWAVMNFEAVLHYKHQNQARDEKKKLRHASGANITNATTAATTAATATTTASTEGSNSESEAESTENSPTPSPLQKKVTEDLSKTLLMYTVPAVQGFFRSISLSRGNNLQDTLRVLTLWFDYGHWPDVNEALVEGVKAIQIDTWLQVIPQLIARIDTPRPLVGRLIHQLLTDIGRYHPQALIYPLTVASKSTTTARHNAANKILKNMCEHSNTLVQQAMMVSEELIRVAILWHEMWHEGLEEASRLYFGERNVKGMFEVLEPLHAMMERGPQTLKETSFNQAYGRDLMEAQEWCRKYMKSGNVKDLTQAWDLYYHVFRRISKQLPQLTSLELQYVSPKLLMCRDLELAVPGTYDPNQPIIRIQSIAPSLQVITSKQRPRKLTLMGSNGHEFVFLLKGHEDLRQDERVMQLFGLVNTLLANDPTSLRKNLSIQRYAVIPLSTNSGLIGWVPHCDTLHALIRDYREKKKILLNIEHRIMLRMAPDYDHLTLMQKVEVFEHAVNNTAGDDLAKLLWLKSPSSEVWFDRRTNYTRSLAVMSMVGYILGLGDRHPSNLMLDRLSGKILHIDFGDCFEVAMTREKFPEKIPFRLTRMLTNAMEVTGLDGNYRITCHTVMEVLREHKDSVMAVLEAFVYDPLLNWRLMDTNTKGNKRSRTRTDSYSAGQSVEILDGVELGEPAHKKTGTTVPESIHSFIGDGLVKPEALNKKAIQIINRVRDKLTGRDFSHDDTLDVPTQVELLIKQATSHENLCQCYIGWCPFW
Experimental: Biochemical Assay for m-TOR by TR-FRET.
Assay components are purchased from Invitrogen Corporation (Carlsbad/Calif., USA): GFP-4EBP1 (Cat. No. PV4759), Tb3+-α-p4EBP1 [pThr46] Antibody (Cat. No. PV4757), proprietary TR-FRET dilution buffer (Cat. No. PV3574), mTOR protein (Cat. No. PV4753).
50 nL of compound dilutions (final concentration of 10, 3.0, 1.0, 0.3, 0.1, 0.03, 0.01 and 0.003 μM) are dispensed onto black 384-well low volume non-binding polystyrene (Cat. No. NBS#3676, Corning, Lowell/Mass., USA). Then 5 μL of ATP (8 μM final concentration) and GFP-4EBP1 (400 nM final concentration) with 5 μL mTOR proteins (0.5 nM final concentration) are incubated at rt. The standard reaction buffer for the TR-FRET mTOR assay contained 50 mM HEPES pH 7.5, 10 mM MnCl2, 50 mM NaCl, 1 mM EGTA, 1 mM DTT. Reactions were stopped with 10 μL of a mixture of EDTA containing the Tb3+-α-p4EBP1[pT46] detection Ab (0.5 nM) in TR-FRET dilution buffer (proprietary to IVG). Plates are read 15 mins later in a Synergy2 reader using an integration time of 0.2 seconds and a delay of 0.1 seconds. Control for the 100% inhibition of the kinase reaction is performed by replacing the mTOR kinase by the standard reaction buffer. The control for the 0% inhibition is given by the solvent vehicle of the compounds (90% DMSO in H2O). A standard compound is used as a reference compound and included in all assay plates in the form of 16 dilution points in duplicate.

PI3K alfa = biological target: T4, PI3K alfa (Homo sapiens, UniProt P42336); assay: PI3K alpha kinase assay (Kinase-Glo luminescence); type: biochemical; conditions: read-out: EPK_PI3Kalfa/IC50
T4 construct: His tag (C); made in house; host or cells: baculovirus BV1075; Tn5 (Trichoplusia ni) or TiniPro insect cells
T4 sequence (P42336 with tags, fused parts or gaps limits assumed): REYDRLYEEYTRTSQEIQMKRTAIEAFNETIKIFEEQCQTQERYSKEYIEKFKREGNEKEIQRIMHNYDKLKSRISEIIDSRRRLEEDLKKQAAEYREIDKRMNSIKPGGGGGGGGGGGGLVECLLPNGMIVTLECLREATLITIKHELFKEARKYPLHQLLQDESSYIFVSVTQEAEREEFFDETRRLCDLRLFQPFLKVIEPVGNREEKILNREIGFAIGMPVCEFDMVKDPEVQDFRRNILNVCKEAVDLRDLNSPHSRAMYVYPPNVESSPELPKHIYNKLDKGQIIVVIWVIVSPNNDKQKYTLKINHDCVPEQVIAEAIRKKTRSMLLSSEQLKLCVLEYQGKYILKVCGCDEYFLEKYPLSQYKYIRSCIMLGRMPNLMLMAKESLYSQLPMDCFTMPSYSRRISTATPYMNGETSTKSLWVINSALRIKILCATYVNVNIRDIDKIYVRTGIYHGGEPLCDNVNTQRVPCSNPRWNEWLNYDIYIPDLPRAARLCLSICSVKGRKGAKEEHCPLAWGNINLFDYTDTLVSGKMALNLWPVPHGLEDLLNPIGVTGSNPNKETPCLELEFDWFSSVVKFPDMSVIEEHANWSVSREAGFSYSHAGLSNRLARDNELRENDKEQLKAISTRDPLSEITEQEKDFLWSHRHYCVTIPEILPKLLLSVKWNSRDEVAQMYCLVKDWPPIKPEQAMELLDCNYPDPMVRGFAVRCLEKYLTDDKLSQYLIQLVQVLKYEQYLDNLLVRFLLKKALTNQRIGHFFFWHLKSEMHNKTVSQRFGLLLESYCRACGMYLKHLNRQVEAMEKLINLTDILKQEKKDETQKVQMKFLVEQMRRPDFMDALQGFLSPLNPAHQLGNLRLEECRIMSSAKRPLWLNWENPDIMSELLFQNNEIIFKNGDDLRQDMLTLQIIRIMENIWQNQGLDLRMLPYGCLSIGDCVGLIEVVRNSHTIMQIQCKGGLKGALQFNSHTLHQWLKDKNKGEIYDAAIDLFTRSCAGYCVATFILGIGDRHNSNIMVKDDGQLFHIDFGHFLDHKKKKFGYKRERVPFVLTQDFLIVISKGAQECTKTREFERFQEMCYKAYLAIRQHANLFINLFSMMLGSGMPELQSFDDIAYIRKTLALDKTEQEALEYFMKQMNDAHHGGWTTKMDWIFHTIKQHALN
Experimental: as §1, §2, §3
Two different constructs, BV 1052 and BV 1075, are used to generate the PI3 Kinase α proteins for compound screening.
PI3K alpha is purified in three chromatographic steps: immobilized metal affinity chromatography on a Ni Sepharose resin (GE Healthcare, belonging to General Electric Company, Fairfield, Conn., USA), gel filtration utilizing a Superdex 200 26/60 column (GE Healthcare), and finally a cation exchange step on a SP-XL column (GE Healthcare). All buffers are chilled to 4° C. and lysis is performed chilled on ice. Column fractionation is performed rapidly at room temperature.
as §4

| Structure (SMILES) | pIC50 (PI3K beta) | pIC50 (PI3K delta) | pIC50 (mTOR) | pIC50 (PI3K alfa) |
| --- | --- | --- | --- | --- |
| CCNc1ncc(-c2ccc3ncc4c(c3c2)n(-c2ccc(N3CC[C@H](O)C3)nc2C)c(=O)n4C)cn1 [Example 32.10, 8-(2-Ethylamino-pyrimidin-5-yl)-1-[6-((S)-3-hydroxy-pyrrolidin-1-yl)-2-methyl-pyridin-3-yl]-3-methyl-1,3-dihydro-imidazo[4,5-c]quinolin-2-one] | 6.40 | 7.70 | 7.82 | 7.36 |
| CNc1ncc(-c2ccc3ncc4c(c3c2)n(-c2ccc(C(F)(F)F)nc2C)c(=O)n4C)cc1COC [Example 33.6, 8-(5-Methoxymethyl-6-methylamino-pyridin-3-yl)-3-methyl-1-(2-methyl-6-trifluoromethyl-pyridin-3-yl)-1,3-dihydro-imidazo[4,5-c]quinolin-2-one] | 7.21 | 8.00 | 7.15 | 7.57 |
